Data from US11858945B2, “Alkyne-containing antiviral agents” (Enanta Pharmaceuticals, Inc., priority 2021, dated 2024).

Each molecule was assayed against SARS-CoV-2 3CL-protease (Severe acute respiratory syndrome coronavirus 2 (2019-nCoV) (SARS-CoV-2), UniProt P0DTD1) (assay: SARS-CoV-2 3C-like (3CL) protease fluorescence assay (FRET)). Conditions: recombinant SARS-CoV-2 3CL-protease 10 nM, 30 min preincubation at RT, peptide substrate, run in duplicate; IC50 ranges.
Type: biochemical

| Compound | IC50 [nM] |
| --- | --- |
| C#C[C@@H]1C[C@@]2(CN1C(=O)[C@H](CC(C)(C)F)NC(=O)c1cc3cc(S(C)(=O)=O)ccc3[nH]1)C(=O)Nc1ccccc12 [Compound 1, N—((S)-1-((3R,5′S)-5′-ethynyl-2-oxospiro[indoline-3,3′-pyrrolidin]-1′-yl)-4-fluoro-4-methyl-1-oxopentan-2-yl)-5-(methylsulfonyl)-1H-indole-2-carboxamide] | 100 to 1000 |
| C#C[C@@H]1C[C@@]2(CN1C(=O)[C@H](CC(C)(C)F)NC(=O)c1cc3c(Cl)cccc3[nH]1)C(=O)Nc1ccccc12 [Compound 2, 4-chloro-N—((S)-1-((3R,5′S)-5′-ethynyl-2-oxospiro[indoline-3,3′-pyrrolidin]-1′-yl)-4-fluoro-4-methyl-1-oxopentan-2-yl)-1H-indole-2-carboxamide] | 100 to 1000 |
| C#C[C@@H]1C[C@@]2(CN1C(=O)[C@H](CC(C)(C)F)NC(=O)c1cc3cc(Cl)ccc3[nH]1)C(=O)Nc1ccccc12 [Compound 3, 5-chloro-N—((S)-1-((3R,5′S)-5′-ethynyl-2-oxospiro[indoline-3,3′-pyrrolidin]-1′-yl)-4-fluoro-4-methyl-1-oxopentan-2-yl)-1H-indole-2-carboxamide] | 100 to 1000 |
| C#C[C@@H]1C[C@@]2(CN1C(=O)[C@H](CC(C)(C)F)NC(=O)c1cc3ccc(Cl)cc3[nH]1)C(=O)Nc1ccccc12 [Compound 4, 6-chloro-N—((S)-1-((3R,5′S)-5′-ethynyl-2-oxospiro[indoline-3,3′-pyrrolidin]-1′-yl)-4-fluoro-4-methyl-1-oxopentan-2-yl)-1H-indole-2-carboxamide] | < 100 |
| C#C[C@@H]1C[C@@]2(CN1C(=O)[C@H](CC(C)(C)F)NC(=O)c1cc3cccc(Cl)c3[nH]1)C(=O)Nc1ccccc12 [Compound 5, 7-chloro-N—((S)-1-((3R,5′S)-5′-ethynyl-2-oxospiro[indoline-3,3′-pyrrolidin]-1′-yl)-4-fluoro-4-methyl-1-oxopentan-2-yl)-1H-indole-2-carboxamide] | < 100 |
| C#C[C@@H]1C[C@@]2(CN1C(=O)[C@H](CC(C)(C)F)NC(=O)c1cc3c(Cl)cc(Cl)cc3[nH]1)C(=O)Nc1ccccc12 [Compound 6, 4,6-dichloro-N—((S)-1-((3R,5′S)-5′-ethynyl-2-oxospiro[indoline-3,3′-pyrrolidin]-1′-yl)-4-fluoro-4-methyl-1-oxopentan-2-yl)-1H-indole-2-carboxamide] | 100 to 1000 |
| C#C[C@@H]1C[C@@]2(CN1C(=O)[C@H](CC(C)(C)F)NC(=O)c1cc3ccc(Cl)c(Cl)c3[nH]1)C(=O)Nc1ccccc12 [Compound 7, 6,7-dichloro-N—((S)-1-((3R,5′S)-5′-ethynyl-2-oxospiro[indoline-3,3′-pyrrolidin]-1′-yl)-4-fluoro-4-methyl-1-oxopentan-2-yl)-1H-indole-2-carboxamide] | < 100 |
| C#C[C@@H]1C[C@@]2(CN1C(=O)[C@H](CC(C)(C)F)NC(=O)c1cc3cccc(F)c3[nH]1)C(=O)Nc1ccccc12 [Compound 8, N—((S)-1-((3R,5′S)-5′-ethynyl-2-oxospiro[indoline-3,3′-pyrrolidin]-1′-yl)-4-fluoro-4-methyl-1-oxopentan-2-yl)-7-fluoro-1H-indole-2-carboxamide] | < 100 |
| C#C[C@@H]1C[C@@]2(CN1C(=O)[C@H](CC(C)(C)F)NC(=O)c1cc3ccc(F)cc3[nH]1)C(=O)Nc1ccccc12 [Compound 9, N—((S)-1-((3R,5′S)-5′-ethynyl-2-oxospiro[indoline-3,3′-pyrrolidin]-1′-yl)-4-fluoro-4-methyl-1-oxopentan-2-yl)-6-fluoro-1H-indole-2-carboxamide] | < 100 |
| C#C[C@@H]1C[C@@]2(CN1C(=O)[C@H](CC(C)(C)F)NC(=O)c1cc3c(F)cc(F)cc3[nH]1)C(=O)Nc1ccccc12 [Compound 10, N—((S)-1-((3R,5′S)-5′-ethynyl-2-oxospiro[indoline-3,3′-pyrrolidin]-1′-yl)-4-fluoro-4-methyl-1-oxopentan-2-yl)-4,6-difluoro-1H-indole-2-carboxamide] | 100 to 1000 |
| C#C[C@@H]1C[C@@]2(CN1C(=O)[C@H](CC(C)(C)F)NC(=O)c1cc3c(F)ccc(F)c3[nH]1)C(=O)Nc1ccccc12 [Compound 11, N—((S)-1-((3R,5′S)-5′-ethynyl-2-oxospiro[indoline-3,3′-pyrrolidin]-1′-yl)-4-fluoro-4-methyl-1-oxopentan-2-yl)-4,7-difluoro-1H-indole-2-carboxamide] | < 100 |
| C#C[C@@H]1C[C@@]2(CN1C(=O)[C@H](CC(C)(C)F)NC(=O)c1cc3cc(F)c(F)c(F)c3[nH]1)C(=O)Nc1ccccc12 [Compound 12, N—((S)-1-((3R,5′S)-5′-ethynyl-2-oxospiro[indoline-3,3′-pyrrolidin]-1′-yl)-4-fluoro-4-methyl-1-oxopentan-2-yl)-5,6,7-trifluoro-1H-indole-2-carboxamide] | < 100 |
| C#C[C@@H]1C[C@@]2(CN1C(=O)[C@H](CC(C)(C)F)NC(=O)c1cc3cccc(C(F)(F)F)c3[nH]1)C(=O)Nc1ccccc12 [Compound 13, N—((S)-1-((3R,5′S)-5′-ethynyl-2-oxospiro[indoline-3,3′-pyrrolidin]-1′-yl)-4-fluoro-4-methyl-1-oxopentan-2-yl)-7-(trifluoromethyl)-1H-indole-2-carboxamide] | < 100 |
| C#C[C@@H]1C[C@@]2(CN1C(=O)[C@H](CC(C)(C)F)NC(=O)c1cc3cc(C(F)(F)F)ccc3[nH]1)C(=O)Nc1ccccc12 [Compound 14, N—((S)-1-((3R,5′S)-5′-ethynyl-2-oxospiro[indoline-3,3′-pyrrolidin]-1′-yl)-4-fluoro-4-methyl-1-oxopentan-2-yl)-5-(trifluoromethyl)-1H-indole-2-carboxamide] | 100 to 1000 |
| C#C[C@@H]1C[C@@]2(CN1C(=O)[C@H](CC(C)(C)F)NC(=O)c1cc3cccc(C#N)c3[nH]1)C(=O)Nc1ccccc12 [Compound 15, 7-cyano-N—((S)-1-((3R,5′S)-5′-ethynyl-2-oxospiro[indoline-3,3′-pyrrolidin]-1′-yl)-4-fluoro-4-methyl-1-oxopentan-2-yl)-1H-indole-2-carboxamide] | < 100 |
| C#C[C@@H]1C[C@@]2(CN1C(=O)[C@H](CC(C)(C)F)NC(=O)c1cc3cccnc3[nH]1)C(=O)Nc1ccccc12 [Compound 16, N—((S)-1-((3R,5′S)-5′-ethynyl-2-oxospiro[indoline-3,3′-pyrrolidin]-1′-yl)-4-fluoro-4-methyl-1-oxopentan-2-yl)-1H-pyrrolo[2,3-b]pyridine-2-carboxamide] | 100 to 1000 |
| C#C[C@@H]1C[C@@]2(CN1C(=O)[C@H](CC(C)(C)F)NC(=O)c1cc3cccc(F)c3o1)C(=O)Nc1ccccc12 [Compound 17, N—((S)-1-((3R,5′S)-5′-ethynyl-2-oxospiro[indoline-3,3′-pyrrolidin]-1′-yl)-4-fluoro-4-methyl-1-oxopentan-2-yl)-7-fluorobenzofuran-2-carboxamide] | > 1000 |
| C#C[C@@H]1C[C@@]2(CN1C(=O)[C@H](CC(C)(C)F)NC(=O)c1cc3cc(F)ccc3o1)C(=O)Nc1ccccc12 [Compound 18, N—((S)-1-((3R,5′S)-5′-ethynyl-2-oxospiro[indoline-3,3′-pyrrolidin]-1′-yl)-4-fluoro-4-methyl-1-oxopentan-2-yl)-5-fluorobenzofuran-2-carboxamide] | > 1000 |
| C#C[C@@H]1C[C@@]2(CN1C(=O)[C@H](CC(C)(C)F)NC(=O)c1cc(F)c3ncccc3c1)C(=O)Nc1ccccc12 [Compound 19, N—((S)-1-((3R,5′S)-5′-ethynyl-2-oxospiro[indoline-3,3′-pyrrolidin]-1′-yl)-4-fluoro-4-methyl-1-oxopentan-2-yl)-8-fluoroquinoline-6-carboxamide] | > 1000 |
| C#C[C@@H]1C[C@@]2(CN1C(=O)[C@H](CC(C)(C)F)NC(=O)c1cccc(OC(F)(F)F)c1)C(=O)Nc1ccccc12 [Compound 20, N—((S)-1-((3R,5′S)-5′-ethynyl-2-oxospiro[indoline-3,3′-pyrrolidin]-1′-yl)-4-fluoro-4-methyl-1-oxopentan-2-yl)-3-(trifluoromethoxy)benzamide] | 100 to 1000 |
| C#C[C@@H]1C[C@@]2(CN1C(=O)[C@H](CC(C)(C)F)NC(=O)c1c(Cl)cccc1Cl)C(=O)Nc1ccccc12 [Compound 21, 2,6-dichloro-N—((S)-1-((3R,5′S)-5′-ethynyl-2-oxospiro[indoline-3,3′-pyrrolidin]-1′-yl)-4-fluoro-4-methyl-1-oxopentan-2-yl)benzamide] | > 1000 |
